BindingDB's records for doi:10.1126/science.abf1611 (Sichuan University, 2021)
Values joined by “and” are separate entries in the source; they are usually repeats but may differ in a detail not shown here. Equal values may be shown once.

What was measured:
[1] = biological target: T1, Replicase polyprotein 1ab (Severe acute respiratory syndrome coronavirus 2, UniProt P0DTD1); test: The enzymatic inhibition assay
Procedure: The enzymatic inhibition assay was carried out with a final concentration of 100 nM recombinant SARS-CoV-2 Mpro and 20 μM FRET substrate. […] The initial velocities were calculated from the first 1 min of each reaction curve. The IC50 values were calculated using a dose-response model in GraphPad Prism 8.0 software. All experiments were performed in triplicate, and the values are presented as mean ± standard deviation (SD).

[2] = biological target: T1, Replicase polyprotein 1ab
[3] = biological target: T1, Replicase polyprotein 1ab; test: scanning fluorimetry assay of HPAEpiC cells
Procedure: The differential scanning fluorimetry (DSF) assay was carried out on a CFX96 real-time PCR Detection System (Bio-Rad). […] The Mpro protein (final concentration: 2 μM) was pre-incubated with 40 μM of compounds for 30 min. […] The melt temperature (Tm) was calculated by using a Boltzmann model in GraphPad Prism 8.0 software. The thermal shift (ΔTm) was calculated using the equation ΔTm=Tm(compound)-Tm(DMSO). All experiments were performed in triplicate, and the values are presented as mean ± SD. HPAEpiC cells are used.

Compound	IC50 [1]	EC50 [2]	EC50 [3]
O=C[C@H](C[C@@H]1CCNC1=O)NC(=O)[C@H]1[C@@H]2CCC[C@H]2CN1C(=O)CCc1ccc(F)c(F)c1 [MI-22]	17 nM		
O=C[C@H](C[C@@H]1CCNC1=O)NC(=O)[C@H]1[C@@H]2CCC[C@H]2CN1C(=O)c1cccnc1 [MI-15]	749 nM		
CC1(C)[C@@H]2[C@H](C(=O)N[C@H](C=O)C[C@@H]3CCNC3=O)N(C(=O)CCc3cccc(F)c3)C[C@@H]21 [MI-03]	17 nM		
CC1(C)[C@@H]2[C@H](C(=O)N[C@H](C=O)C[C@@H]3CCNC3=O)N(C(=O)COc3ccc(Cl)c(Br)c3)C[C@@H]21 [MI-10]	51 nM		
CC1(C)[C@@H]2[C@H](C(=O)N[C@H](C=O)C[C@@H]3CCNC3=O)N(C(=O)COc3ccc4ccccc4c3)C[C@@H]21 [11b]	52 nM and 27 nM	75 nM	
COc1ccc(OCC(=O)N2C[C@H]3[C@@H]([C@@H]2C(=O)N[C@H](C=O)C[C@@H]2CCNC2=O)C3(C)C)cc1OC [MI-06]	15 nM		
O=C[C@H](C[C@@H]1CCNC1=O)NC(=O)[C@H]1[C@@H]2CCC[C@H]2CN1C(=O)COc1ccc2c(c1)OCCO2 [MI-27]	94 nM		
CNc1ccc(/C=C/C(=O)N2C[C@@H]3CCC[C@H]3[C@@H]2C(=O)N[C@H](C=O)C[C@@H]2CCNC2=O)cc1 [MI-20]	375 nM		
CC1(C)[C@@H]2[C@H](C(=O)N[C@H](C=O)C[C@@H]3CCNC3=O)N(C(=O)COc3ccc(C(F)(F)F)cc3)C[C@@H]21 [MI-07]	43 nM		
COc1ccc(OC(C)C(=O)N2C[C@@H]3CCC[C@H]3[C@@H]2C(=O)N[C@H](C=O)C[C@@H]2CCNC2=O)cc1 (stereo partly specified) [MI-26]	69 nM		
O=C[C@H](C[C@@H]1CCNC1=O)NC(=O)[C@H]1[C@@H]2CCC[C@H]2CN1C(=O)COc1ccc(Cl)c(Cl)c1 [MI-31]	30 nM	62 nM	0.4 nM
CC1(C)[C@@H]2[C@H](C(=O)N[C@H](C=O)C[C@@H]3CCNC3=O)N(C(=O)COc3ccc(F)c(F)c3)C[C@@H]21 [MI-05]	13 nM		
O=C[C@H](C[C@@H]1CCNC1=O)NC(=O)[C@H]1[C@@H]2CCC[C@H]2CN1C(=O)COc1ccc(Cl)cc1 [MI-28]		42 nM	2.2 nM
O=C[C@H](C[C@@H]1CCNC1=O)NC(=O)[C@H]1[C@@H]2CCC[C@H]2CN1C(=O)/C=C/c1ccccc1 [MI-18]	526 nM		
O=C[C@H](C[C@@H]1CCNC1=O)NC(=O)[C@H]1[C@@H]2CCC[C@H]2CN1C(=O)c1cc2ccccn2n1 [MI-17]	299 nM		
CC1(C)[C@@H]2[C@H](C(=O)N[C@H](C=O)C[C@@H]3CCNC3=O)N(C(=O)COc3cc(F)cc(F)c3)C[C@@H]21 [MI-04]	19 nM		
O=C[C@H](C[C@@H]1CCNC1=O)NC(=O)[C@H]1[C@@H]2CCC[C@H]2CN1C(=O)COc1ccc(Cl)cc1F [MI-29]	35 nM		
Cc1cc(Cl)ccc1OCC(=O)N1C[C@@H]2CCC[C@H]2[C@@H]1C(=O)N[C@H](C=O)C[C@@H]1CCNC1=O [MI-32]	20 nM		
CC1(C)[C@@H]2[C@H](C(=O)N[C@H](C=O)C[C@@H]3CCNC3=O)N(C(=O)COc3ccc(Cl)cc3Cl)C[C@@H]21 [MI-14]	13 nM	85 nM	0.3 nM
O=C[C@H](C[C@@H]1CCNC1=O)NC(=O)[C@H]1[C@@H]2CCC[C@H]2CN1C(=O)c1cc2ccccc2[nH]1 [MI-16]	153 nM		
COc1ccc(/C=C/C(=O)N2C[C@@H]3CCC[C@H]3[C@@H]2C(=O)N[C@H](C=O)C[C@@H]2CCNC2=O)c(OC)c1 [MI-19]	196 nM		
CN(C)c1ccc(CCC(=O)N2C[C@@H]3CCC[C@H]3[C@@H]2C(=O)N[C@H](C=O)C[C@@H]2CCNC2=O)cc1 [MI-24]	378 nM		
COc1ccc(OCC(=O)N2C[C@@H]3CCC[C@H]3[C@@H]2C(=O)N[C@H](C=O)C[C@@H]2CCNC2=O)cc1 [MI-25]	36 nM		
CC1(C)[C@@H]2[C@H](C(=O)N[C@H](C=O)C[C@@H]3CCNC3=O)N(C(=O)COc3ccc(Cl)cc3)C[C@@H]21 [MI-12]	19 nM	97 nM	7.3 nM
CC1(C)[C@@H]2[C@H](C(=O)N[C@H](C=O)C[C@@H]3CCNC3=O)N(C(=O)COc3ccc(Br)cc3Cl)C[C@@H]21 [MI-11]	13 nM		
COc1ccc(OCC(=O)N2C[C@H]3[C@@H]([C@@H]2C(=O)N[C@H](C=O)C[C@@H]2CCNC2=O)C3(C)C)cc1F [MI-08]	37 nM		
CC1(C)[C@@H]2[C@H](C(=O)N[C@H](C=O)C[C@@H]3CCNC3=O)N(C(=O)COc3ccc(Cl)c(Cl)c3)C[C@@H]21 [MI-13]	12 nM		
CC1(C)[C@@H]2[C@H](C(=O)N[C@H](C=O)C[C@@H]3CCNC3=O)N(C(=O)c3ccc4ccccc4c3)C[C@@H]21 [MI-01]	453 nM		
